Measured values taken from ChEMBL document CHEMBL3885861, “Open TG-GATES”.

Species on record: Rattus norvegicus
Assay: Open TG-GATES - Regimen: Single
Format: toxicity, organism-based, Sprague-Dawley
Set-up: regimen Single, gender Male, age 6 weeks
Settings: in vivo, po, 200 mg/kg, route gavage, dose level High; for APTT / Bas / Eos / Fbg / Hb / Ht / Lym / MCH / MCHC / MCV / Mono / Neu / PT / Plat / RBC / Ret / WBC: tissue Blood; for KIDNEY_L / KIDNEY_R / KIDNEY_TOTAL: tissue Kidney; for LIVER: tissue Liver; for A/G / ALP / ALT / AST / BUN / CRE / Ca / Cl / DBIL / GLC / IP / K / LDH / Na / PL / RALB / TBIL / TC / TG / TP / gamma-GTP: tissue Plasma

CCc1oc2ccccc2c1C(=O)c1cc(Br)c(O)c(Br)c1 [BENZBROMARONE]
TERMINAL_BW (3 h): 215.1 g
APTT (3 h): 17.8 s
Bas (3 h): 0%
Eos (3 h): 1%
Fbg (3 h): 227 mg/dL
Hb (3 h): 13.3 g/dL
Ht (3 h): 39.8%
Lym (3 h): 76.4%
MCH (3 h): 22.2 pg
MCHC (3 h): 33.3%
MCV (3 h): 66.5 fL
Mono (3 h): 4.4%
Neu (3 h): 18.4%
PT (3 h): 12.3 s
Plat (3 h): 98.6 x10_4/uL
RBC (3 h): 600 x10_4/ul
Ret (3 h): 7.7%
WBC (3 h): 85.4 x10_2/uL
KIDNEY_L (3 h): 1 g
KIDNEY_R (3 h): 0.9 g
KIDNEY_TOTAL (3 h): 1.9 g
LIVER (3 h): 9.9 g
A/G (3 h): 1.9
ALP (3 h): 814 IU/L
ALT (3 h): 37.2 IU/L
AST (3 h): 70 IU/L
BUN (3 h): 17.2 mg/dL
CRE (3 h): 0.8 mg/dL
Ca (3 h): 9.9 mg/dL
Cl (3 h): 103.4 meq/L
DBIL (3 h): 0.096 mg/dL
GLC (3 h): 252.6 mg/dL
IP (3 h): 10 mg/dL
K (3 h): 5.3 meq/L
LDH (3 h): 137.2 IU/L
Na (3 h): 138.4 meq/L
PL (3 h): 136.8 mg/dL
RALB (3 h): 3.6 g/dL
TBIL (3 h): 0.4 mg/dL
TC (3 h): 75.6 mg/dL
TG (3 h): 69.6 mg/dL
TP (3 h): 5.5 g/dL
gamma-GTP (3 h): 1 IU/L
TERMINAL_BW (6 h): 213.5 g
APTT (6 h): 16.3 s
Bas (6 h): 0%
Eos (6 h): 0.8%
Fbg (6 h): 239.2 mg/dL
Hb (6 h): 13.2 g/dL
Ht (6 h): 39.6%
Lym (6 h): 80.2%
MCH (6 h): 21.6 pg
MCHC (6 h): 33.3%
MCV (6 h): 64.8 fL
Mono (6 h): 5.4%
Neu (6 h): 13.6%
PT (6 h): 12.2 s
Plat (6 h): 97.5 x10_4/uL
RBC (6 h): 612 x10_4/ul
Ret (6 h): 7.9%
WBC (6 h): 66.9 x10_2/uL
KIDNEY_L (6 h): 1 g
KIDNEY_R (6 h): 1 g
KIDNEY_TOTAL (6 h): 2 g
LIVER (6 h): 9.5 g
A/G (6 h): 2
ALP (6 h): 776.8 IU/L
ALT (6 h): 34 IU/L
AST (6 h): 59 IU/L
BUN (6 h): 14.2 mg/dL
CRE (6 h): 0.7 mg/dL
Ca (6 h): 10.5 mg/dL
Cl (6 h): 101.4 meq/L
DBIL (6 h): 0.024 mg/dL
GLC (6 h): 212.4 mg/dL
IP (6 h): 10.3 mg/dL
K (6 h): 4.8 meq/L
LDH (6 h): 137.4 IU/L
Na (6 h): 139.2 meq/L
PL (6 h): 137 mg/dL
RALB (6 h): 3.8 g/dL
TBIL (6 h): 0.4 mg/dL
TC (6 h): 78.4 mg/dL
TG (6 h): 56.6 mg/dL
TP (6 h): 5.7 g/dL
gamma-GTP (6 h): 1.4 IU/L
TERMINAL_BW (9 h): 213.1 g
APTT (9 h): 17 s
Bas (9 h): 0%
Eos (9 h): 0%
Fbg (9 h): 240 mg/dL
Hb (9 h): 13.2 g/dL
Ht (9 h): 39.4%
Lym (9 h): 79.2%
MCH (9 h): 22.2 pg
MCHC (9 h): 33.6%
MCV (9 h): 66 fL
Mono (9 h): 2.8%
Neu (9 h): 17.8%
PT (9 h): 12.2 s
Plat (9 h): 104 x10_4/uL
RBC (9 h): 596.4 x10_4/ul
Ret (9 h): 8.2%
WBC (9 h): 96.1 x10_2/uL
KIDNEY_L (9 h): 1 g
KIDNEY_R (9 h): 1 g
KIDNEY_TOTAL (9 h): 2 g
LIVER (9 h): 9.2 g
A/G (9 h): 2.1
ALP (9 h): 868 IU/L
ALT (9 h): 34.4 IU/L
AST (9 h): 60.8 IU/L
BUN (9 h): 16.6 mg/dL
CRE (9 h): 0.7 mg/dL
Ca (9 h): 10.4 mg/dL
Cl (9 h): 103.4 meq/L
DBIL (9 h): 0.04 mg/dL
GLC (9 h): 207.8 mg/dL
IP (9 h): 10.7 mg/dL
K (9 h): 4.9 meq/L
LDH (9 h): 178.8 IU/L
Na (9 h): 138.6 meq/L
PL (9 h): 143.8 mg/dL
RALB (9 h): 3.9 g/dL
TBIL (9 h): 0.3 mg/dL
TC (9 h): 81.2 mg/dL
TG (9 h): 65.6 mg/dL
TP (9 h): 5.9 g/dL
gamma-GTP (9 h): 1.4 IU/L
TERMINAL_BW (24 h): 217.2 g
APTT (24 h): 15.8 s
Bas (24 h): 0%
Eos (24 h): 0.6%
Fbg (24 h): 219.2 mg/dL
Hb (24 h): 13.9 g/dL
Ht (24 h): 41.2%
Lym (24 h): 83.6%
MCH (24 h): 22.2 pg
MCHC (24 h): 33.6%
MCV (24 h): 65.9 fL
Mono (24 h): 4.6%
Neu (24 h): 11.4%
PT (24 h): 12.4 s
Plat (24 h): 107.4 x10_4/uL
RBC (24 h): 627.2 x10_4/ul
Ret (24 h): 7.6%
WBC (24 h): 117.5 x10_2/uL
KIDNEY_L (24 h): 1 g
KIDNEY_R (24 h): 1 g
KIDNEY_TOTAL (24 h): 2 g
LIVER (24 h): 11.3 g
A/G (24 h): 2.1
ALP (24 h): 1012.6 IU/L
ALT (24 h): 35 IU/L
AST (24 h): 61 IU/L
BUN (24 h): 16.8 mg/dL
CRE (24 h): 0.7 mg/dL
Ca (24 h): 10.2 mg/dL
Cl (24 h): 103.6 meq/L
DBIL (24 h): 0.018 mg/dL
GLC (24 h): 182 mg/dL
IP (24 h): 7.9 mg/dL
K (24 h): 4.9 meq/L
LDH (24 h): 186.2 IU/L
Na (24 h): 139.6 meq/L
PL (24 h): 119.6 mg/dL
RALB (24 h): 3.9 g/dL
TBIL (24 h): 0.3 mg/dL
TC (24 h): 70.8 mg/dL
TG (24 h): 74.8 mg/dL
TP (24 h): 5.9 g/dL
gamma-GTP (24 h): 1.6 IU/L
